Experimental data published in patent publication US9452992B2 (priority 2011, dated 2016).

Tested on: VSV particles pseudotyped with EboV GP on CHO cells overexpressing NPC1
Format: cell-based, Chinese hamster

Structure (SMILES)	effect of NPC1 overexpression on antiviral activity
COC(=O)c1ccc(COc2ccccc2CN2CCN(C(=O)CNC(=O)CC34CC5CC(CC(C5)C3)C4)CC2)cc1 [compound 3.48, methyl 4-((2-((4-(2-(2-((3r,5r,7r)-adamantan-1-yl)acetamido)acetyl)piperazin-1-yl)methyl)phenoxy)methyl)benzoate]	conferred resistance
O=C(CC12CC3CC(CC(C3)C1)C2)NCC(=O)N1CCN(Cc2ccccc2)CC1 [3.0, 2-((3r,5r,7r)-adamantan-1-yl)-N-(2-(4-benzylpiperazin-1-yl)-2-oxoethyl)acetamide]	conferred resistance
